Measurements from patent US20240366809A1, “INHIBITOR OF PROSTATE SPECIFIC MEMBRANE ANTIGEN AND PHARMACEUTICAL USE THEREOF” (TIANJIN HENGRUI MEDICINE CO., LTD., priority 2021, published 2024).
pIC50: −log10 of the molar value. Where “and” joins values, the source holds several entries; their conditions need not be identical. Identical values can stand only once.

Tests used:
rhPSMA [1] = biological target: T1, rhPSMA (Homo sapiens (Human), UniProt Q04609); experiment: Tests for inhibitory activity against PSMA (Test Example 1); format: biochemical; settings: rhPSMA 50 ng/well, substrate N-Acetyl-Asp-Glu, 37° C. 1 h
T1 sequence (Q04609 44-750): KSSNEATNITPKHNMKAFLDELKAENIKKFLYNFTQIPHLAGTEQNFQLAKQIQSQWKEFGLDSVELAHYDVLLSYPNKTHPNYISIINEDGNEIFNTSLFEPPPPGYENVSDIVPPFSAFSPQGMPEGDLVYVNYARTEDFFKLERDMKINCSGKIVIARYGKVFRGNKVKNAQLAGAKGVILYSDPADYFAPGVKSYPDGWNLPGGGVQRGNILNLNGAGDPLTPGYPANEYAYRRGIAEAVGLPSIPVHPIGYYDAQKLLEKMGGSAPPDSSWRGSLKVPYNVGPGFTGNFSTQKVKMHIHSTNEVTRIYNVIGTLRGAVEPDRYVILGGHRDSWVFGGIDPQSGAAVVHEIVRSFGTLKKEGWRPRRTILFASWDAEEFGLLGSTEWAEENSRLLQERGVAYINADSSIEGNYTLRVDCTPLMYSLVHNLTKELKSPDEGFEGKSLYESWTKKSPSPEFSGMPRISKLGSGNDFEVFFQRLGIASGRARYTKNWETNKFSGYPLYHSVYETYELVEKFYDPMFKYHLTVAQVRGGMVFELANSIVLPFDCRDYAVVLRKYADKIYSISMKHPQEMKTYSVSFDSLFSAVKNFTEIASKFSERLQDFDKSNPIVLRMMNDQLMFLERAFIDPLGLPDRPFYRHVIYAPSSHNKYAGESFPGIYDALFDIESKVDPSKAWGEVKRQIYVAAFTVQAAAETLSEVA
Method: • 1. Multifunctional microplate reader (SPARK, TECAN) • 2. rhPSMA (R&D, 4234-ZN) • 3. N-Acetyl-Asp-Glu (Sigma, A5930) • 4. OPA (Sigma, P0657)
PSMA inhibitors can bind to the enzyme PSMA to prevent the enzyme PSMA from decomposing the substrate N-Acetyl-Asp-Glu. In this experiment, the extent to which the substrate was decomposed and the resulting ultraviolet absorption changes were measured to evaluate the capacities of the PSMA inhibitors to bind to the enzyme PSMA, and the activity of the compounds was evaluated with IC50 values.
(§1) Buffer 1 (50 mM HEPES, 0.1 M NaCl, pH 7.5) was used to prepare a 0.4 μg/mL rhPSMA solution and a 40 μM solution of the substrate N-Acetyl-Asp-Glu. rhPSMA was mixed with the small molecules to be tested in a 96-well plate, with a constant rhPSMA content of 50 ng/well maintained. Meanwhile, the small molecules were step-wise diluted to final concentrations of 1 μM, 100 nM, 33.3 nM, 11.1 nM, 3.7 nM, 1.2 nM, 0.41 nM, 0.137 nM, 0.045 nM, and 0 nM. In addition, a positive control was set up using PSMA-617. The rhPSMA-small molecules were taken at 40 μL/well and well mixed with the 40 μM solution of the substrate N-Acetyl-Asp-Glu (40 μL/well). The mixtures were incubated at 37° C. in the dark for 1 h, were heated at 70° C. for 5 min to quench the reactions, and were cooled to room temperature. Buffer 2 (0.2 M NaOH, 0.1% beta-Mercaptoethanol) was used to prepare a 15 mM OPA solution. The OPA solution was added to the reaction systems at 80 μL/well and well mixed, and then the plate was incubated at room temperature for 10 min. The mixtures were taken at 100 μL/well and added to a 96-well Flat Black. With the excitation wavelength set to 330 nm and the emission wavelength to 465 nm, the intensity of signals was measured. IC50 values were obtained from dose-response curves.
The capacities of the compounds of the present disclosure to bind to the enzyme GCPII can be measured through the assay described above.

rhPSMA [2] = biological target: T1, rhPSMA; experiment: Affinity assays using enzyme activity method (Test Example 2); format: biochemical; settings: for Ratio to PSMA-617: ratio of IC50 values; for pIC50: rhPSMA 50 ng/well, substrate N-Acetyl-Asp-Glu, 37° C. 1 h
Method: as §1

LnCaP tumor = experiment: Biodistribution of 68Ga-labeled compounds in LnCaP tumor-bearing mice; format: in vivo
Method: After single tail-vein injections into mice, the in-vivo distributions of ^68Ga-labeled compound v (Example 9) and compound x (Example 11) in the positive LnCaP tumor-bearing mice were observed.
At 2 h after the injection, a total of 3 animals were sacrificed by cervical dislocation, and tissue samples were collected, including samples of the blood, the heart, the lungs, the liver, the spleen, the kidneys, the stomach, the intestine, the bones, the flesh, the brain, the salivary gland, the large intestine, the pancreas, and the tumor. The net weight of the tissues was measured first, and the radioactivity counts of the collected tissues were then measured using a γ-counter. The distributions of the labeled compounds in the different tissues and organs of the mice were measured. Meanwhile, a test sample was accurately diluted 100-fold, and 0.1 mL of the dilution was added to a counting tube and used as standard 1% ID (i.e., one percent of the injected dose). The radioactivity counts of the 1% ID standard and the biological samples were measured simultaneously on a γ-counter. The biodistribution data were expressed as the percentage of the radioactivity counts per gram of tissue or organ to the total injected dose (radioactivity counts) (% ID/g).

[3] = Pharmacokinetics in blood of normal mice after single tail-vein injection; format: in vivo; settings: for Blood % ID/g: normal mice, individual animals 1-4
Method: Through single tail-vein injections into mice, the pharmacokinetics of ^68Ga-v (Example 9) and PSMA-617 in blood was studied.
Each mouse was dosed at 50 μCi/100 μL, and blood samples were taken from the orbit 0.083, 0.25, 0.5, 1, 2, and 4 h post-dose (4 animals per time point). The blood samples were collected in pre-weighed sample tubes. The tubes were weighed and the weight of the blood samples was recorded. Then radioactivity counting was performed using a γ-counter. Meanwhile, a test sample was accurately diluted 100-fold, and 0.1 mL of the dilution was added to a counting tube and used as standard 1% ID (i.e., one percent of the injected dose). The radioactivity counts of the 1% ID standard and the biological samples were measured simultaneously on a γ-counter. The data on blood were expressed as the percentage of the radioactivity counts per gram of blood to the total injected dose (radioactivity counts) (% ID/g). Pharmacokinetic parameters were calculated from blood drug concentration data.

human organs = experiment: Absorbed doses of radiation, estimates for human organs (OLINDA software)
Method: The AUC of drug metabolisms was calculated from the biodistribution (Bio-D) data and imported into the OLINDA software to generate doses of radiation absorbed by all the organs.

[4] = 2 h after injection, LnCaP tumor-bearing mice

In the case of NCc1cnn([C@@H](Cc2ccccc2)C(=O)NCCCC[C@H](NC(=O)N[C@@H](CCC(=O)O)C(=O)O)C(=O)O)c1, the pIC50 (rhPSMA [1]) was 6.85.

Compound N[C@@H](Cc1ccncc1)C(=O)NCCCC[C@H](NC(=O)N[C@@H](CCC(=O)O)C(=O)O)C(=O)O has a pIC50 (rhPSMA [1]) of 6.75.

Work on NCc1ccc(C(=O)Nc2cccc(C(=O)NCCCC[C@H](NC(=O)N[C@@H](CCC(=O)O)C(=O)O)C(=O)O)n2)cc1 yielded a pIC50 (rhPSMA [1]) of 8.62.

For O=C(O)CC[C@H](NC(=O)N[C@@H](CCCCNC(=O)[C@H](Cc1ccc2ccccc2c1)NC(=O)C1CC12CCNCC2)C(=O)O)C(=O)O (some centres unmarked), the pIC50 (rhPSMA [1]) was 8.62.

For O=C(O)CC[C@H](NC(=O)N[C@@H](CCCCNC(=O)[C@H](Cc1ccc2ccccc2c1)NC(=O)N1CCC(CNC(=O)CN2CCN(CC(=O)O)CCN(CC(=O)O)CCN(CC(=O)O)CC2)CC1)C(=O)O)C(=O)O, the pIC50 (rhPSMA [1]) was 8.38.

With O=C(O)CC[C@H](NC(=O)N[C@@H](CCCCNC(=O)[C@H](Cc1ccc2ccccc2c1)NC(=O)[C@H]1CC[C@@]2(CC1)CN(C(=O)CN1CCN(CC(=O)O)CCN(CC(=O)O)CCN(CC(=O)O)CC1)CCO2)C(=O)O)C(=O)O [Example 11, (((S)-1-carboxy-5-((S)-3-(2-naphthyl)-2-((6R,9s)-4-(2-(4,7,10-tris(carboxymethyl)-1,4,7,10-tetraazacyclododecanyl)acetyl)-1-oxa-4-azaspiro[5.5]undecane-9-carboxamido)propanamido)pentyl)carbamoyl)-L-glutamic acid] the “Ratio to PSMA-617” value (rhPSMA [2]) was 7.85 and the pIC50 (rhPSMA [2]) was 7.89.

For O=C(O)CC[C@H](NC(=O)N[C@@H](CCCCNC(=O)[C@H](Cc1ccc2ccccc2c1)NC(=O)[C@H]1CC[C@H](CNC(=O)CN2CCN(CC(=O)O)CCN(CC(=O)O)CCN(CC(=O)O)CC2)CC1)C(=O)O)C(=O)O [PSMA-617, reference compound], the pIC50 (rhPSMA [1]) was 8.63, the “Ratio to PSMA-617” value (rhPSMA [2]) was 1.00 and the pIC50 (rhPSMA [2]) was 8.78.

In the case of O=C([O-])CN1CCN(CC(=O)[O-])CCN(CC(=O)N2CCO[C@]3(CC[C@H](C(=O)N[C@@H](Cc4ccc5ccccc5c4)C(=O)NCCCC[C@H](NC(=O)N[C@@H](CCC(=O)O)C(=O)O)C(=O)O)CC3)C2)CCN(CC(=O)[O-])CC1.[68Ga+3] [^68Ga-v], the “targeting effect on the LnCap tumor” value (LnCaP tumor; [4]) was “good targeting effect on the LnCap tumor”, the “tumor uptake, comparison in words” value (LnCaP tumor; [4]) was “better than ^68Ga-x (Example 11)'s” and the “uptake values in the other tissues” value (LnCaP tumor; 2 h after injection, tissues other than tumor, kidneys, liver, lung, spleen) was “very low”. The “uptake value in the LnCap tumor” value (LnCaP tumor; 2 h after single tail-vein injection, LnCaP tumor-bearing mice) was ~10 Id %/g, the “time estimated using 5 effective half-lives” value ([3]; 5 effective half-lives) was 2.27 h and the “Blood % ID/g” value ([3]; 0.083 h post-dose) was 5.89 % ID/g and 4.98 % ID/g and 5.26 % ID/g and 4.11 % ID/g. For the same compound, the “content of the radioactive substance in the blood” value ([3]; 0.25 h after the injections, mean of n=4) was 1.25±0.22 % ID/g, the “Blood % ID/g” value ([3]; 0.25 h post-dose) was 1.33 % ID/g and 1.11 % ID/g and 1.52 % ID/g and 1.03 % ID/g and the “Blood % ID/g” value ([3]; 0.5 h post-dose) was 1.15 % ID/g and 0.52 % ID/g and 0.79 % ID/g and 0.99 % ID/g. For the same compound, the “Blood % ID/g” value ([3]; 1 h post-dose) was 0.33 % ID/g and 0.19 % ID/g (2×) and 0.16 % ID/g, the “Blood % ID/g” value ([3]; 2 h post-dose) was 0.07 % ID/g and 0.13 % ID/g and 0.10 % ID/g and 0.11 % ID/g and the “Blood % ID/g” value ([3]; 4 h post-dose) was 0.06 % ID/g and 0.02 % ID/g and 0.10 % ID/g and 0.08 % ID/g. For the same compound, the “effective half-life Te” value ([3]; according to calculations) was 27 min, the elimination phase half-life ([3]; blood of mice) was 45.5 min and the “half-life in the blood” value ([3]; blood of normal mice) was 7.8 min. It also gave an AUCINF_obs ([3]; blood of normal mice, 0-4 h) of 1.66 ± 0.24 h* % ID/g, an AUClast ([3]; blood of normal mice, 0-4 h) of 1.67 ± 0.26 h* % ID/g and a Cl_obs ([3]; blood of normal mice, 0-4 h) of 12.17 ± 1.77 μCi/h* % ID/g. For the same compound, the Cmax ([3]; blood of normal mice, 0-4 h) was 5.06 ± 0.74 % ID/g, the MRTlast ([3]; blood of normal mice, 0-4 h) was 23.4 ± 1.2 min and the Vz_obs ([3]; blood of normal mice, 0-4 h) was 4.97 ± 1.09 μCi/% ID/g. The t1/2 ([3]; blood of normal mice, 0-4 h) was 7.8 min, the t1/2 ([3]; blood of normal mice, 0-4 h, listed as 68Ga-V) was 7.8 ± 2.4 min and the “time after dosing at which substantially metabolized” value ([3]; estimated as 5 times the half-life) was 3.9 h. The “absorbed dose of radiation, comparison with the labeled PSMA-617 in words” value (human organs; from Table 5) was “half of that resulting from ^68Ga-PSMA-617”, the “radiation dose estimate, Adrenals” value (human organs; human organ: Adrenals) was 8.50E−03 mSv/MBq and the “radiation dose estimate, Brain” value (human organs; human organ: Brain) was 3.99E−02 mSv/MBq. For the same compound, the “radiation dose estimate, Esophagus” value (human organs; human organ: Esophagus) was 3.77E−03 mSv/MBq, the “radiation dose estimate, Eyes” value (human organs; human organ: Eyes) was 1.84E−03 mSv/MBq and the “radiation dose estimate, Gallbladder Wall” value (human organs; human organ: Gallbladder Wall) was 5.52E−03 mSv/MBq. For the same compound, the “radiation dose estimate, Heart Wall” value (human organs; human organ: Heart Wall) was 1.62E−02 mSv/MBq, the “radiation dose estimate, Kidneys” value (human organs; human organ: Kidneys) was 3.54E−02 mSv/MBq and the “radiation dose estimate, Left colon” value (human organs; human organ: Left colon) was 6.87E−03 mSv/MBq. The “radiation dose estimate, Liver” value (human organs; human organ: Liver) was 2.50E−02 mSv/MBq, the “radiation dose estimate, Lungs” value (human organs; human organ: Lungs) was 1.05E−02 mSv/MBq and the “radiation dose estimate, Osteogenic Cells” value (human organs; human organ: Osteogenic Cells) was 4.65E−03 mSv/MBq. For the same compound, the “radiation dose estimate, Pancreas” value (human organs; human organ: Pancreas) was 9.51E−03 mSv/MBq, the “radiation dose estimate, Prostate” value (human organs; human organ: Prostate) was 3.77E−03 mSv/MBq and the “radiation dose estimate, Rectum” value (human organs; human organ: Rectum) was 1.99E−01 mSv/MBq. For the same compound, the “radiation dose estimate, Red Marrow” value (human organs; human organ: Red Marrow) was 2.12E−03 mSv/MBq, the “radiation dose estimate, Right colon” value (human organs; human organ: Right colon) was 3.43E−03 mSv/MBq and the “radiation dose estimate, Salivary Glands” value (human organs; human organ: Salivary Glands) was 1.81E−03 mSv/MBq. The “radiation dose estimate, Small Intestine” value (human organs; human organ: Small Intestine) was 1.31E−01 mSv/MBq, the “radiation dose estimate, Spleen” value (human organs; human organ: Spleen) was 5.13E−02 mSv/MBq and the “radiation dose estimate, Stomach Wall” value (human organs; human organ: Stomach Wall) was 8.54E−02 mSv/MBq. The “radiation dose estimate, Testes” value (human organs; human organ: Testes) was 3.51E−04 mSv/MBq, the “radiation dose estimate, Thymus” value (human organs; human organ: Thymus) was 1.99E−03 mSv/MBq and the “radiation dose estimate, Thyroid” value (human organs; human organ: Thyroid) was 9.11E−04 mSv/MBq. The “radiation dose estimate, Urinary Bladder Wall” value (human organs; human organ: Urinary Bladder Wall) was 2.27E−03 mSv/MBq, the “radiation dose estimate, Effective Dose” value (human organs; human: Effective Dose) was 2.10E−02 mSv/MBq and the “radiation dose estimate, Total Body” value (human organs; human: Total Body) was 0.496E−02 mSv/MBq.

O=C(O)CC[C@H](NC(=O)N[C@@H](CCCCNC(=O)[C@H](Cc1ccc2ccccc2c1)NC(=O)[C@H]1CC[C@@]2(CC1)CN(C(=O)CN1CCN(CC(=O)O)CCN(CC(=O)O)CCN(CC(=O)O)CC1)CCO2)C(=O)O)C(=O)O [drawing 156] gave a pIC50 (rhPSMA [1]) of 8.82.
